{"source": "patent US9884063B2", "about": "“Amido-substituted azole compounds” (Bayer Pharma Aktiengesellschaft, priority 2014, dated 2018)", "note": "pIC50: −log10 of the molar value. Structures can show the parent of a compound that is named as a salt.", "data": [{"tested_on": "wildtype Wnt signaling cascade", "experiment": "HEK293 TOP Assay (Super TopFlash luciferase reporter, Wnt-3a stimulated)", "assay_type": "cell-based", "details": "Homo sapiens, HEK293, 16 h, HEK293 TOP reporter cell line, Wnt-3a at EC50, 16 hours incubation, compound dilution series 50 μM to 15 nM", "method": "In order to discover and characterize small molecules which inhibit the wildtype Wnt pathway, a cellular reporter assay was employed. The corresponding assay cell was generated by transfection of the mammalian cell line HEK293 (ATCC, #CRL-1573) with the Super TopFlash vector (Morin, Science 275, 1997, 1787-1790; Molenaar et al., Cell 86 (3), 1996, 391-399). The HEK293 cell line is cultivated at 37° C. and 5% CO2 in DMEM (Life Technologies, #41965-039), supplemented with 2 mM glutamine, 20 mM HEPES, 1.4 mM pyruvate, 0.15% Na-bicarbonate and 10% foetal bovine serum (GIBCO, #10270). Stable transfectants were generated by selection with 300 μg/ml Hygromycin.\nIn preparation of the assay, the two cell lines were plated 24 hrs before beginning the test at 10000 cells per well in a 384 micro titre plate (MTP) in 30 μl growth medium. […] The recombinant human Wnt-3a was thereby applied between 2500 and 5 ng/ml in two-fold dilution steps.\nSelective inhibitory activity for small molecules on the wildtype Wnt pathway was determined after parallel incubation of both (TOP and FOP) HEK293 reporter cell lines with a compound dilution series from 50 μM to 15 nM in steps of 3.16-fold dilutions in CAFTY buffer (130 mM sodium chloride, 5 mM potassium chloride, 20 mM HEPES, 1 mM magnesium chloride, 5 mM sodium bicarbonate, pH 7.4) containing 2 mM Ca^2+ and 0.01% BSA.\nThe compounds were thereby serially prediluted in 100% DMSO and thereafter 50 fold into the CAFTY compound dilution buffer (described above).", "values": [{"smiles": "CN1CCN(CCCNC(=O)c2[nH]cnc2C(=O)Nc2ccc(NC(=O)c3ccccc3Cl)cc2)CC1", "note": "[Example 192, N^4-{4-[(2-chlorobenzoyl)amino]phenyl}-N^5-[3-(4-methylpiperazin-1-yl)propyl]-1H-imidazole-4,5-dicarboxamide]", "pIC50": 6.34}, {"smiles": "CN1CCN(NC(=O)c2[nH]cnc2C(=O)Nc2ccc(NC(=O)c3ccc(F)cc3)cc2)CC1", "note": "[Example 193, N^4-{4-[(4-fluorobenzoyl)amino]phenyl}-N^5-(4-methylpiperazin-1-yl)-1H-imidazole-4,5-dicarboxamide]", "pIC50": 5.24}, {"smiles": "CC(CNC(=O)c1[nH]cnc1C(=O)Nc1ccc(NC(=O)c2ccc(F)cc2)cc1)N1CCN(C)CC1", "note": "(stereo not drawn) [Example 205, N^4-{4-[(4-fluorobenzoyl)amino]phenyl}-N^5-[2-(4-methylpiperazin-1-yl)propyl]-1H-imidazole-4,5-dicarboxamide]", "pIC50": 5.58}, {"smiles": "CNC(=O)c1nc[nH]c1C(=O)Nc1ccc(NC(=O)c2ccc(F)cc2O)cc1", "note": "[Example 245, N^5-{4-[(4-fluoro-2-hydroxybenzoyl)amino]phenyl}-N^4-methyl-1H-imidazole-4,5-dicarboxamide]", "pIC50": 4.30}, {"smiles": "NC1CCN(C(=O)c2[nH]cnc2C(=O)Nc2ccc(NC(=O)c3ccc(F)cc3Cl)cc2)C1", "note": "(stereo not drawn) [Example 285, 5-[(3-aminopyrrolidin-1-yl)carbonyl]-N-{4-[(2-chloro-4-fluorobenzoyl)amino]phenyl}-1H-imidazole-4-carboxamide hydrochloride salt]", "pIC50": 5.94}, {"smiles": "O=C(Nc1ccc(NC(=O)c2nc[nH]c2C(=O)N2CCNCC2)cc1)c1ccc(F)cc1Cl", "note": "[Example 289, N-{4-[(2-chloro-4-fluorobenzoyl)amino]phenyl}-5-(piperazin-1-ylcarbonyl)-1H-imidazole-4-carb oxamide hydrochloric acid salt]", "pIC50": 5.57}, {"smiles": "CNC(=O)c1[nH]cnc1C(=O)Nc1ccc(NC(=O)c2ccc(F)cc2Cl)c(OC(F)(F)F)c1", "note": "[Example 291, N^4-{4-[(2-chloro-4-fluorobenzoyl)amino]-3-(trifluoromethoxy)phenyl}-N^5-methyl-1H-imidazole-4,5-dicarboxamide]", "pIC50": 4.84}, {"smiles": "O=C(Nc1ccc(NC(=O)c2nc[nH]c2C(=O)NCC(F)(F)F)cc1OC(F)(F)F)c1ccc(F)cc1Cl", "note": "[Example 292, N^4-{4-[(2-chloro-4-fluorobenzoyl)amino]-3-(trifluoromethoxy)phenyl}-N^5-(2,2,2-trifluoroethyl)-1H-imidazole-4,5-dicarboxamide]", "pIC50": 4.96}, {"smiles": "CC1CN(CCNC(=O)c2[nH]cnc2C(=O)Nc2ccc(NC(=O)c3ccc(F)cc3Cl)cc2)CC(C)O1", "note": "(stereo not drawn) [Example 301, N^4-{4-[(2-4-fluorochlorobenzoyl)amino]phenyl}-N^5-[2-(2,6-dimethylmorpholin-4-yl)ethyl]-1H-imidazole-4,5-dicarboxamide]", "pIC50": 5.92}, {"smiles": "CNC(=O)c1nc[nH]c1C(=O)Nc1ccc(NC(=O)c2ccc(OC)cc2)cc1", "note": "[Example 304, N^5-{4-[(4-methoxybenzoyl)amino]phenyl}-N^4-methyl-1H-imidazole-4,5-dicarboxamide]", "pIC50": 4.94}, {"smiles": "CNC(=O)c1nc[nH]c1C(=O)Nc1ccc(NC(=O)c2cccc(OC)c2)cc1", "note": "[Example 305, N^5-{4-[(3-methoxybenzoyl)amino]phenyl}-N^4-methyl-1H-imidazole-4,5-dicarboxamide]", "pIC50": 4.50}, {"smiles": "CNC(=O)c1nc[nH]c1C(=O)Nc1ccc(NC(=O)c2ccc(Cl)cc2)cc1", "note": "[Example 306, N^5-{4-[(4-chlorobenzoyl)amino]phenyl}-N^4-methyl-1H-imidazole-4,5-dicarboxamide]", "pIC50": 5.50}, {"smiles": "CNC(=O)c1nc[nH]c1C(=O)Nc1ccc(NC(=O)c2ccc(Cl)c(Cl)c2)cc1", "note": "[Example 308, N^5-{4-[(3,4-dichlorobenzoyl)amino]phenyl}-N^4-methyl-1H-imidazole-4,5-dicarboxamide]", "pIC50": 5.47}, {"smiles": "CNC(=O)c1nc[nH]c1C(=O)Nc1ccc(NC(=O)c2ccc(Cl)cc2OC)cc1", "note": "[Example 310, N^5-{4-[(4-chloro-2-methoxybenzoyl)amino]phenyl}-N^4-methyl-1H-imidazole-4,5-dicarboxamide]", "pIC50": 4.98}, {"smiles": "CNC(=O)c1nc[nH]c1C(=O)Nc1ccc(NC(=O)c2cccc(C#N)c2)cc1", "note": "[Example 311, N^5-{4-[(3-cyanobenzoyl)amino]phenyl}-N^4-methyl-1H-imidazole-4,5-dicarboxamide]", "pIC50": 4.30}, {"smiles": "CNC(=O)c1nc[nH]c1C(=O)Nc1ccc(NC(=O)c2ccoc2)cc1", "note": "[Example 312, N^5-{4-[(furan-3-ylcarbonyl)amino]phenyl}-N^4-methyl-1H-imidazole-4,5-dicarboxamide]", "pIC50": 4.30}, {"smiles": "CNC(=O)c1nc[nH]c1C(=O)Nc1ccc(NC(=O)c2ccc(C(F)(F)F)cc2)cc1", "note": "[Example 316, N^4-methyl-N^5-(4-{[4-(trifluoromethyl)benzoyl]amino}phenyl)-1H-imidazole-4,5-dicarboxamide]", "pIC50": 4.87}, {"smiles": "CNC(=O)c1nc[nH]c1C(=O)Nc1ccc(NC(=O)c2cccc(N(C)C)c2)cc1", "note": "[Example 317, N^5-(4-{[3-(dimethylamino)benzoyl]amino}phenyl)-N^4-methyl-1H-imidazole-4,5-dicarboxamide]", "pIC50": 4.30}, {"smiles": "CNC(=O)c1nc[nH]c1C(=O)Nc1ccc(NC(=O)c2cc(F)ccc2F)cc1", "note": "[Example 318, N^5-{4-[(2,5-difluorobenzoyl)amino]phenyl}-N^4-methyl-1H-imidazole-4,5-dicarboxamide]", "pIC50": 5.89}, {"smiles": "CNC(=O)c1nc[nH]c1C(=O)Nc1ccc(NC(=O)c2ccc(F)c(F)c2)cc1", "note": "[Example 320, N^5-{4-[(3,4-difluorobenzoyl)amino]phenyl}-N^4-methyl-1H-imidazole-4,5-dicarboxamide]", "pIC50": 5.32}, {"smiles": "CNC(=O)c1nc[nH]c1C(=O)Nc1ccc(NC(=O)c2cc(F)cc(F)c2)cc1", "note": "[Example 321, N^5-{4-[(3,5-difluorobenzoyl)amino]phenyl}-N^4-methyl-1H-imidazole-4,5-dicarboxamide]", "pIC50": 4.30}, {"smiles": "CNC(=O)c1nc[nH]c1C(=O)Nc1ccc(NC(=O)c2c(F)ccc(F)c2F)cc1", "note": "[Example 323, N^4-methyl-N^5-{4-[(2,3,6-trifluorobenzoyl)amino]phenyl}-1H-imidazole-4,5-dicarboxamide]", "pIC50": 5.84}, {"smiles": "CNC(=O)c1nc[nH]c1C(=O)Nc1ccc(NC(=O)c2cccc(F)c2C)cc1", "note": "[Example 324, N^5-{4-[(3-fluoro-2-methylbenzoyl)amino]phenyl}-N^4-methyl-1H-imidazole-4,5-dicarboxamide]", "pIC50": 5.49}, {"smiles": "CNC(=O)c1nc[nH]c1C(=O)Nc1ccc(NC(=O)c2ccc(C)c(F)c2)cc1", "note": "[Example 328, N^5-{4-[(3-fluoro-4-methylbenzoyl)amino]phenyl}-N^4-methyl-1H-imidazole-4,5-dicarboxamide]", "pIC50": 5.28}, {"smiles": "CNC(=O)c1nc[nH]c1C(=O)Nc1ccc(NC(=O)c2ccco2)cc1", "note": "[Example 329, N^5-{4-[(furan-2-ylcarbonyl)amino]phenyl}-N^4-methyl-1H-imidazole-4,5-dicarboxamide]", "pIC50": 4.30}, {"smiles": "CNC(=O)c1nc[nH]c1C(=O)Nc1ccc(NC(=O)c2cccc(F)c2)cc1", "note": "[Example 331, N^5-{4-[(3-fluorobenzoyl)amino]phenyl}-N^4-methyl-1H-imidazole-4,5-dicarboxamide]", "pIC50": 5.07}, {"smiles": "CNC(=O)c1nc[nH]c1C(=O)Nc1ccc(NC(=O)c2ccn(C)n2)cc1", "note": "[Example 332, N^4-methyl-N^5-(4-{[(1-methyl-1H-pyrazol-3-yl)carbonyl]amino}phenyl)-1H-imidazole-4,5-dicarboxamide]", "pIC50": 5.02}, {"smiles": "CNC(=O)c1nc[nH]c1C(=O)Nc1ccc(NC(=O)c2cc(C)cc(C)c2)cc1", "note": "[Example 335, N^5-{4-[(3,5-dimethylbenzoyl)amino]phenyl}-N^4-methyl-1H-imidazole-4,5-dicarboxamide]", "pIC50": 4.67}, {"smiles": "CNC(=O)c1nc[nH]c1C(=O)Nc1ccc(NC(=O)c2cccc(C)c2)cc1", "note": "[Example 336, N^4-methyl-N^5-{4-[(3-methylbenzoyl)amino]phenyl}-1H-imidazole-4,5-dicarboxamide]", "pIC50": 4.96}, {"smiles": "CNC(=O)c1nc[nH]c1C(=O)Nc1ccc(NC(=O)c2ccc(C)cc2)cc1", "note": "[Example 337, N^4-methyl-N^5-{4-[(4-methylbenzoyl)amino]phenyl}-1H-imidazole-4,5-dicarboxamide]", "pIC50": 4.63}, {"smiles": "CNC(=O)c1nc[nH]c1C(=O)Nc1ccc(NC(=O)c2ccc(OC)c(F)c2)cc1", "note": "[Example 338, N^5-{4-[(3-fluoro-4-methoxybenzoyl)amino]phenyl}-N^4-methyl-1H-imidazole-4,5-dicarboxamide]", "pIC50": 5.55}, {"smiles": "CNC(=O)c1nc[nH]c1C(=O)Nc1ccc(NC(=O)c2ccccc2N(C)C)cc1", "note": "[Example 339, N^5-(4-{[2-(dimethylamino)benzoyl]amino}phenyl)-N^4-methyl-1H-imidazole-4,5-dicarboxamide]", "pIC50": 4.34}, {"smiles": "CNC(=O)c1nc[nH]c1C(=O)Nc1ccc(NC(=O)c2cncs2)cc1", "note": "[Example 345, N^4-methyl-N^5-{4-[(1,3-thiazol-5-ylcarbonyl)amino]phenyl}-1H-imidazole-4,5-dicarboxamide]", "pIC50": 4.30}]}]}
